Assay results reported in publication PMC8429728, “TNK1 is a ubiquitin-binding and 14-3-3-regulated kinase that can be targeted to block tumor growth” (Nature Communications, 2021).
Like-named read-outs stand apart in the source and are kept apart here.

Legend:
Assay in all cases: biochemical
Set-up in all cases: Reaction Biology 371-kinase panel at Km ATP, per cent enzyme activity relative to DMSO, single dose in duplicate
[1] = molecular target: VRK1 (Homo sapiens, UniProt Q99986); conditions: duplicate measurements, Km ATP
Procedure, shortened: (§1)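 Percent kinase activity relative to vehicle (DMSO) is reported for a 371-kinase in vitro panel at 300 nM compound; IC50 values derive from variable-slope sigmoidal fits with the lower plateau fixed at 0.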

[2] = molecular target: SNARK/NUAK2 (Homo sapiens, UniProt Q9H093); conditions: duplicate measurements, Km ATP; read-out: % Enzyme Activity (relative to DMSO controls) / TP-0005801 (0.3µM) / Data 1
Procedure, shortened: as §1

[3] = molecular target: ARK5/NUAK1 (Homo sapiens, UniProt O60285); conditions: duplicate measurements, Km ATP; read-out: % Enzyme Activity (relative to DMSO controls) / TP-0005801 (0.3µM) / Data 1
Procedure, shortened: as §1

[4] = molecular target: KHS/MAP4K5 (Homo sapiens, UniProt Q9Y4K4); conditions: duplicate measurements, Km ATP
Sequence of KHS/MAP4K5 (Q9Y4K4 whole entry): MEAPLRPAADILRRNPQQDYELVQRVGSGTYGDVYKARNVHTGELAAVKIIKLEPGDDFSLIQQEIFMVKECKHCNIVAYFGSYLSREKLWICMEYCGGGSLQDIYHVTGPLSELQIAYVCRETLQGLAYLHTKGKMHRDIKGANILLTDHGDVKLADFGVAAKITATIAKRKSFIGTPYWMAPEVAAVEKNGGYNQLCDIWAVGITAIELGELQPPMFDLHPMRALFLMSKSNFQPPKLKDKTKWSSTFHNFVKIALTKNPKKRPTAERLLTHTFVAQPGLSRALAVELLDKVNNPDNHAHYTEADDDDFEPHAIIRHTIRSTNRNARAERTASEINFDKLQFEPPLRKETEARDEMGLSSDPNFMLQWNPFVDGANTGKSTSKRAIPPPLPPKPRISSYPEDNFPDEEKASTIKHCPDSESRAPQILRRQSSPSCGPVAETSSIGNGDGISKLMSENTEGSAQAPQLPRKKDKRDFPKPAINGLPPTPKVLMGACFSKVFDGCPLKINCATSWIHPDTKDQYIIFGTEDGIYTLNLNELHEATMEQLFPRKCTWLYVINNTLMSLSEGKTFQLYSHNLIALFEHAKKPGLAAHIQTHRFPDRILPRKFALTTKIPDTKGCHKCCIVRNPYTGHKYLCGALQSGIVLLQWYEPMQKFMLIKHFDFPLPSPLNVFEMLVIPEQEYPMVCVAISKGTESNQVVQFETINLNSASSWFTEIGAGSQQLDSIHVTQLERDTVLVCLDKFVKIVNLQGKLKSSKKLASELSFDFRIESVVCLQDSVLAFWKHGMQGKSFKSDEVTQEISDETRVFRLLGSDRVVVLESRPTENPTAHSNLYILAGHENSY
Procedure, shortened: as §1

[5] = molecular target: RIPK4 (Homo sapiens, UniProt P57078); conditions: duplicate measurements, Km ATP
Sequence of RIPK4 (P57078 whole entry): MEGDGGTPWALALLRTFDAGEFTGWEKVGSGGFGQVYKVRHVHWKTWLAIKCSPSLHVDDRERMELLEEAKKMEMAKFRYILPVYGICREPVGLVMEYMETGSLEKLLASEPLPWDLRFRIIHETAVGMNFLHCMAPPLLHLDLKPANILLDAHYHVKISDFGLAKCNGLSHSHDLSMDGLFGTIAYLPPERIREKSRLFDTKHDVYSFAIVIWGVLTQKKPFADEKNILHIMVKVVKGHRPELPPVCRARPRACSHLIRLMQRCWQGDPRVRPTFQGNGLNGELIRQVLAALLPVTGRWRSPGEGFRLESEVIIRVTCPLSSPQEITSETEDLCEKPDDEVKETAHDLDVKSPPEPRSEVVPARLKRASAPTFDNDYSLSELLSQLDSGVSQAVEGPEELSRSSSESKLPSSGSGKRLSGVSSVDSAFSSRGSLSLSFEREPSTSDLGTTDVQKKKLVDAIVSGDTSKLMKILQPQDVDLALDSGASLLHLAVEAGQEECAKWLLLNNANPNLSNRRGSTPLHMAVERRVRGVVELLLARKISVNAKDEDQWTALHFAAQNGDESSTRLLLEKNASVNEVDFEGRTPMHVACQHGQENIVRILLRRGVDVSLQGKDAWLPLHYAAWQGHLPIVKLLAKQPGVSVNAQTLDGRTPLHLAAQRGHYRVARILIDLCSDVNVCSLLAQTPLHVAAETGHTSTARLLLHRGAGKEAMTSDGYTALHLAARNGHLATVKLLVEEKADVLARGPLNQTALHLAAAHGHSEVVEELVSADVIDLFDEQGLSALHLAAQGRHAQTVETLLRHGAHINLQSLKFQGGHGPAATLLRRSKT
Procedure, shortened: as §1

[6] = molecular target: CLK4 (Homo sapiens, UniProt Q9HAZ1); conditions: duplicate measurements, Km ATP
Sequence of CLK4 (Q9HAZ1 whole entry): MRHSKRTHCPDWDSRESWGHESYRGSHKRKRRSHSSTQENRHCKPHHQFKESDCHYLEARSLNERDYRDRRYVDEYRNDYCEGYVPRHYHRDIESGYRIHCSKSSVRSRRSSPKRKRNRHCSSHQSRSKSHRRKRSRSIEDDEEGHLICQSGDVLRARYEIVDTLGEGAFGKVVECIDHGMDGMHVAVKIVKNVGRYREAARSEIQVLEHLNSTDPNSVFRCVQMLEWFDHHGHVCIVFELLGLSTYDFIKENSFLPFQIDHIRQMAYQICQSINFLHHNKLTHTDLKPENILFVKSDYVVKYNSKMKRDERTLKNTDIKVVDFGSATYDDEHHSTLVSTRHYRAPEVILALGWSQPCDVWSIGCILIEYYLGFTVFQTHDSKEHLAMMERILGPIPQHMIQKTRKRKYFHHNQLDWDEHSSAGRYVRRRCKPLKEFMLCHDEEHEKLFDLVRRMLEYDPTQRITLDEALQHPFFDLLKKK
Procedure, shortened: as §1

[7] = molecular target: GRK1 (Homo sapiens, UniProt Q15835); conditions: duplicate measurements, Km ATP
Sequence of GRK1 (Q15835 whole entry): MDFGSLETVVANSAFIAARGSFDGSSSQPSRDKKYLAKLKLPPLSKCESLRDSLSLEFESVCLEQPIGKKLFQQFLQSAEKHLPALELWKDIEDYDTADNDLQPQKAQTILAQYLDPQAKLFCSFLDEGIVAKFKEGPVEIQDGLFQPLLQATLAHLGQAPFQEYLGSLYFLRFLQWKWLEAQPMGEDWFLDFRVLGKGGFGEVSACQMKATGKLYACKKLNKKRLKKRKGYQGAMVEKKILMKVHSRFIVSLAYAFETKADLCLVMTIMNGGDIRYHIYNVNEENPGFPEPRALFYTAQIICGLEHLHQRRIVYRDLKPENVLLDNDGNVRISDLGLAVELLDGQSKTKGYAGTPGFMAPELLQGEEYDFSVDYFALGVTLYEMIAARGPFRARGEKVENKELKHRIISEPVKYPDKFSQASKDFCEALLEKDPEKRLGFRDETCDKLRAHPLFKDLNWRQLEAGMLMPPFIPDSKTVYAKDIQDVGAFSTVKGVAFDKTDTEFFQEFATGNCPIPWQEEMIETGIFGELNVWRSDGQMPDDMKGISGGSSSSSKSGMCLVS
Procedure, shortened: as §1

[8] = molecular target: CDK2/cyclin A (Homo sapiens, UniProt P24941); conditions: duplicate measurements, Km ATP
Procedure, shortened: as §1

[9] = molecular target: T1, PKAcg (Homo sapiens, UniProt P22612); conditions: duplicate measurements, Km ATP
T1 construct: gene PRKACG
T1 sequence (P22612 whole entry): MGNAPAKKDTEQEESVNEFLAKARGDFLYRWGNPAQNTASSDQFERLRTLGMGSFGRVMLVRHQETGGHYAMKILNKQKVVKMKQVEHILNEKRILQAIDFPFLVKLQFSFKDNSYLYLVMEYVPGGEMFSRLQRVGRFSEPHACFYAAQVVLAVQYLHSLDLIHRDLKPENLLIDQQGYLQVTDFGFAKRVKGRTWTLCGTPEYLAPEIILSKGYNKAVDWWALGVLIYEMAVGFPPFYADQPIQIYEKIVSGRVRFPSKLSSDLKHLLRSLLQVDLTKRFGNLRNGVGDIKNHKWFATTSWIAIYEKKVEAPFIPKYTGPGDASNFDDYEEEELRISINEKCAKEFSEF
Procedure, shortened: as §1

[10] = molecular target: TESK1 (Homo sapiens, UniProt Q15569); conditions: duplicate measurements, Km ATP; read-out: % Enzyme Activity (relative to DMSO controls) / TP-0005801 (0.3µM) / Data 1
Procedure, shortened: as §1

[11] = molecular target: FGR (Homo sapiens, UniProt P09769); conditions: duplicate measurements, Km ATP
Sequence of FGR (P09769 whole entry): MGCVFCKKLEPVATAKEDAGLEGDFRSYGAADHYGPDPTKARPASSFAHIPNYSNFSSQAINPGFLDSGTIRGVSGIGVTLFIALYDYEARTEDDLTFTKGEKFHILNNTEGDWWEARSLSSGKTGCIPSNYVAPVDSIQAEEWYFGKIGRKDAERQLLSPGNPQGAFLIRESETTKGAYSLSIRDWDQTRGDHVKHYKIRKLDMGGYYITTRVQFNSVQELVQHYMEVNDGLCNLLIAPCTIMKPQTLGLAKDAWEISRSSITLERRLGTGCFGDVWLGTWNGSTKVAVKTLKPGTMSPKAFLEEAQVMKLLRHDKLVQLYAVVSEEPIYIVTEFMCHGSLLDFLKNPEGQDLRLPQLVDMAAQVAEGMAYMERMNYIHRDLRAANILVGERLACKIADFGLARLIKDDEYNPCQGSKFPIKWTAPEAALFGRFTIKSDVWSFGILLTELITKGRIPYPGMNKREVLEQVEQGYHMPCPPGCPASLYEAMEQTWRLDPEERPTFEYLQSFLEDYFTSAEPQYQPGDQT
Procedure, shortened: as §1

[12] = molecular target: WNK1 (Homo sapiens, UniProt Q9H4A3); conditions: duplicate measurements, Km ATP
Procedure, shortened: as §1

[13] = molecular target: FGFR1 (Homo sapiens, UniProt P11362); conditions: duplicate measurements, Km ATP
Procedure, shortened: as §1

[14] = molecular target: STK25/YSK1 (Homo sapiens, UniProt O00506); conditions: duplicate measurements, Km ATP
Sequence of STK25/YSK1 (O00506 whole entry): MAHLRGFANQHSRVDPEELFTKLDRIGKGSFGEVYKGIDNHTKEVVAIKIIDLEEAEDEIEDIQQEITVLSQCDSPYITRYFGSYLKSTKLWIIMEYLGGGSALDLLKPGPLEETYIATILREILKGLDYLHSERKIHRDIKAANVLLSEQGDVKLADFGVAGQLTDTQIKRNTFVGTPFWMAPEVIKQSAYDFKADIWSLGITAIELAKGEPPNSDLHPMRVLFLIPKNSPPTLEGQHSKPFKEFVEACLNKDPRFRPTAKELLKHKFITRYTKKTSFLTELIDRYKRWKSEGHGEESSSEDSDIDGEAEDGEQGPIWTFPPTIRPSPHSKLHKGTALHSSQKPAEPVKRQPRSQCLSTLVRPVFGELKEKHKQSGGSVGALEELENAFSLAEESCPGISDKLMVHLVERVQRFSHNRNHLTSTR
Procedure, shortened: as §1

[15] = molecular target: RIPK2 (Homo sapiens, UniProt O43353); conditions: duplicate measurements, Km ATP
Procedure, shortened: as §1

[16] = molecular target: PRKX (Homo sapiens, UniProt P51817); conditions: duplicate measurements, Km ATP
Sequence of PRKX (P51817 whole entry): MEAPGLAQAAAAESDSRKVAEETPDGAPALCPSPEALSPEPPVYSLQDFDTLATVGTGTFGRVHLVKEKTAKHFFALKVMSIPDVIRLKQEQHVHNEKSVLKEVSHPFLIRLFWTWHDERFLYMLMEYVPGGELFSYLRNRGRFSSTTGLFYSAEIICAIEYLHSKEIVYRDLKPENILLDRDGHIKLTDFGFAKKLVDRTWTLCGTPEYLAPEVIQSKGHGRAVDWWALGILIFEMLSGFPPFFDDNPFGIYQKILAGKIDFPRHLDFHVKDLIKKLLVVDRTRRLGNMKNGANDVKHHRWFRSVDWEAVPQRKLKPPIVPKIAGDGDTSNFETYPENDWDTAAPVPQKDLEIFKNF
Procedure, shortened: as §1

[17] = molecular target: CDK1/cyclin B (Homo sapiens, UniProt P06493); conditions: duplicate measurements, Km ATP; read-out: % Enzyme Activity (relative to DMSO controls) / TP-0005801 (0.3µM) / Data 1
Procedure, shortened: as §1

[18] = molecular target: CDK2/CYCLIN E (Homo sapiens, UniProt P24941); conditions: duplicate measurements, Km ATP
Procedure, shortened: as §1

[19] = molecular target: T2, CAMK1b (Homo sapiens, UniProt Q6P2M8); conditions: duplicate measurements, Km ATP
T2 construct: gene PNCK
T2 sequence (Q6P2M8 whole entry): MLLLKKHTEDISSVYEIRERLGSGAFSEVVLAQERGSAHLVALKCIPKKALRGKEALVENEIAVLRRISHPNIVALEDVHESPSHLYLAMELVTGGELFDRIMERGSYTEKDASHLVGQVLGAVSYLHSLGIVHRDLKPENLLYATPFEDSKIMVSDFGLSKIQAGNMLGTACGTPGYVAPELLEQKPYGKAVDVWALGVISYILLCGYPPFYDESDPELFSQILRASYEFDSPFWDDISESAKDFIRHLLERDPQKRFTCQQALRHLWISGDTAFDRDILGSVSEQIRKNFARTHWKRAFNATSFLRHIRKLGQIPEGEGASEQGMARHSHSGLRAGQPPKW
Procedure, shortened: as §1

[20] = molecular target: STK21/CIT (Homo sapiens, UniProt O14578); conditions: duplicate measurements, Km ATP
Procedure, shortened: as §1

[21] = read-out: % Enzyme Activity (relative to DMSO controls) / TP-0005801 (0.3µM) / Data 1
[22] = read-out: % Enzyme Activity (relative to DMSO controls) / TP-0005801 (0.3µM) / Data 2

COc1cc(N2CCN(C)CC2)c(C)cc1Nc1ncc(Br)c(Nc2cccnc2N(C)C)n1 [TP-5801]
remaining activity at 0.3 µM [1, 21]: 92.2% | remaining activity at 0.3 µM [1, 22]: 91.6% | remaining activity at 0.3 µM [2]: 30.2% | remaining activity at 0.3 µM [3]: 14.2% | remaining activity at 0.3 µM [4, 21]: 90% | remaining activity at 0.3 µM [4, 22]: 87% | remaining activity at 0.3 µM [5, 21]: 117% | remaining activity at 0.3 µM [5, 22]: 108% | remaining activity at 0.3 µM [6, 21]: 30.4% | remaining activity at 0.3 µM [6, 22]: 30.2% | remaining activity at 0.3 µM [7, 21]: 118% | remaining activity at 0.3 µM [7, 22]: 109% | remaining activity at 0.3 µM [8, 21]: 90.8% | remaining activity at 0.3 µM [8, 22]: 87.6% | remaining activity at 0.3 µM [9, 21]: 95.5% | remaining activity at 0.3 µM [9, 22]: 92.1% | remaining activity at 0.3 µM [10]: 102% | remaining activity at 0.3 µM [11, 21]: 109% | remaining activity at 0.3 µM [11, 22]: 105% | remaining activity at 0.3 µM [12, 21]: 108% | remaining activity at 0.3 µM [12, 22]: 104% | remaining activity at 0.3 µM [13, 21]: 83.9% | remaining activity at 0.3 µM [13, 22]: 83.3% | remaining activity at 0.3 µM [14, 21]: 85.8% | remaining activity at 0.3 µM [14, 22]: 80.9% | remaining activity at 0.3 µM [15, 21]: 95.8% | remaining activity at 0.3 µM [15, 22]: 93.9% | remaining activity at 0.3 µM [16, 21]: 93.7% | remaining activity at 0.3 µM [16, 22]: 92.5% | remaining activity at 0.3 µM [17]: 103% | remaining activity at 0.3 µM [18, 21]: 91.7% | remaining activity at 0.3 µM [18, 22]: 91.2% | remaining activity at 0.3 µM [19, 21]: 119% | remaining activity at 0.3 µM [19, 22]: 114% | remaining activity at 0.3 µM [20, 21]: 107% | remaining activity at 0.3 µM [20, 22]: 105%
